Results as given in US10633389B2, “CARM1 inhibitors and uses thereof” (Epizyme, Inc., priority 2013, dated 2020).

Test system: asymmetric di-methyl PABP1 in RKO cells
Test: RKO methylation assay, In Cell Western (ICW) for asymmetric di-methyl PABP1
Assay type: cell-based
Details: Homo sapiens, RKO, Cellular potencies, ICW PABP1me2a
Excerpt: RKO adherent cells were purchased from ATCC (American Type Culture Collection), Manassas, Va., USA. DMEM/Glutamax medium, penicillin-streptomycin, heat inactivated fetal bovine serum, 0.05% trypsin and D-PBS were purchased from Life Technologies, Grand Island, N.Y., USA. Odyssey blocking buffer, 800 CW goat anti-rabbit IgG (H+L) antibody, and Licor Odyssey infrared scanner were purchased from Licor Biosciences, Lincoln, Nebr., USA. Asymmetric di-methyl PABP1 antibody was purchased from Cell Signaling Technology, Danvers, Mass., USA. Methanol was purchased from VWR, Franklin, Mass., USA. 10% Tween 20 was purchased from KPL, Inc., Gaithersburg, Md., USA. Paraformaldehyde (PFA) was purchased from EM Sciences. DRAQ5 was purchased from Biostatus Limited, Leicestershire, UK.
RKO adherent cells were maintained in growth medium (DMEM/Glutamax medium supplemented with 10% v/v heat inactivated fetal bovine serum and 100 units/mL penicillin-streptomycin) and cultured at 37° C. under 5% CO2.
Cell treatment, In Cell Western (ICW) for detection of asymmetric di-methyl PABP1 and DNA content: RKO cells were seeded in assay medium at a concentration of 30,000 cells per mL to a poly-D-lysine coated 384 well culture plate (BD Biosciences 356697) with 50 VL per well. Compound (100 nL) from a 96-well source plate was added directly to 384 well cell plate. Plates were incubated at 37° C., 5% CO2 for 48 hours. After two days of incubation, plates were brought to room temperature outside of the incubator for ten minutes and blotted on paper towels to remove cell media. Cells were fixed for 20 minutes at room temperature by adding 50 ul of 8% PFA followed by aspiration of supernatant with the Biotek EL406 plate washer. Cells were then permeabilized by addition of 50 μL of ice cold 100% methanol directly to each well and incubated for 30 min at room temperature. After 30 min, plates were transferred to a Biotek EL406 plate washer and washed 2 times with 100 μL per well of wash buffer (1×PBS). Next 60 μL per well of Odyssey blocking buffer (Odyssey Buffer with 0.1% Tween 20 (v/v)) were added to each plate and incubated 1 hour at room temperature. Blocking buffer was removed and 20 μL per well of primary antibody was added (asymmetric-methyl PABP1) diluted 1:400 in Odyssey buffer with 0.1% Tween 20 (v/v)) and plates were incubated overnight (16 hours) at 4° C. Plates were washed 5 times with 100 μL per well of wash buffer. Next 20 μL per well of secondary antibody was added (1:800 800 CW goat anti-rabbit IgG (H+L) antibody, 1:2000 DRAQ5 in Odyssey buffer with 0.1% Tween 20 (v/v)) and incubated for 1 hour at room temperature. The plates were washed 5 times with 100 μL per well wash buffer then 2 times with 100 μL per well of water. Plates were allowed to dry at room temperature then imaged on the Licor Odyssey machine which measures integrated intensity at 700 nm and 800 nm wavelengths. Both 700 and 800 channels were scanned.
First, the ratio for each well was determined by:
Each plate included fourteen control wells of DMSO only treatment (minimum inhibition) as well as fourteen control wells for maximum inhibition treated with 20 μM of a reference compound. The average of the ratio values for each control type was calculated and used to determine the percent […] for each test well in the plate. Reference compound was serially diluted three-fold in DMSO for a total of nine test concentrations, beginning at 20 μM.
Percent inhibition was determined and IC50 curves were generated using triplicate wells per concentration of compound. […]

Structure (SMILES) | IC50 [µM]
CNCC(O)COc1cccc(-c2nc(-c3c(C)noc3C)cc(N3CCN(C4CC4)CC3)n2)c1 (stereo not drawn) [Example 30-1a] | < 5
CNCC(O)COc1ccc(Cl)c(-c2nc(NCC3CCOC3)c(C)c(-c3c(C)noc3C)n2)c1 (stereo not drawn) [Example 30-3] | < 5
CNCC(O)COc1cccc(-c2nc(NC3CCOC3)cc(-c3c(C)noc3C)n2)c1 (stereo not drawn) [Example 31-1a] | 5 to 10
CNCC(O)COc1ccc(Cl)c(-c2nc(NCC3CCCCO3)c(C)c(-c3c(C)noc3C)n2)c1 (stereo not drawn) [Example 31-3] | < 5
CNCC(O)COc1cccc(-c2nc(N[C@H]3CC[C@H](O)CC3)cc(-c3c(C)noc3C)n2)c1 (stereo partly drawn) [Example 32-1a] | 10 to 20
CNC[C@@H](O)COc1cccc(-c2nc(NC3CCN(C(=O)OC)C(C)C3)c(C)c(-c3c(C)noc3C)n2)c1 (stereo partly drawn) [Example 32-3] | < 5
CNCC(O)COc1cccc(-c2nc(NC3CCOCC3)cc(-c3c(C)noc3C)n2)c1 (stereo not drawn) [Example 33-1] | < 5
CNCC(O)COc1cccc(-c2nc(N[C@H]3CC[C@@H](O)CC3)cc(-c3c(C)noc3C)n2)c1 (stereo partly drawn) [Example 33-1a] | 5 to 10
CNC[C@H](O)COc1cccc(-c2nc(NC3CCN(C(=O)OC)C(C)C3)c(C)c(-c3c(C)noc3C)n2)c1 (stereo partly drawn) [Example 33-3] | < 5
CNCC(O)COc1cccc(-c2nc(-c3c(C)noc3C)c(C)c(N(C)C3CCOCC3)n2)c1 (stereo not drawn) [Example 34-1a] | < 5
CNCC(O)COc1cccc(-c2nc(-c3c(C)noc3C)c(C)c(N3CCn4ccnc4C3)n2)c1 (stereo not drawn) [Example 34-3] | 5 to 10
CNCC(O)COc1cccc(-c2nc(-c3c(C)noc3C)cc(N3CCNC(C)C3)n2)c1 (stereo not drawn) [Example 35-1a] | 5 to 10
CNCC(O)COc1cccc(-c2nc(-c3c(C)noc3C)c(C)c(N3Cc4cccnc4C3)n2)c1 (stereo not drawn) [Example 35-3] | < 5
CNCC(O)COc1cccc(-c2nc(-c3c(C)noc3C)cc(N3CCNC(C)(C)C3)n2)c1 (stereo not drawn) [Example 36-1a] | 10 to 20
CNCC(O)COc1ccc(Cl)c(-c2nc(O[C@H]3CCN(C(=O)OC)[C@@H](C)C3)c(C)c(-c3c(C)noc3C)n2)c1 (stereo partly drawn) [Example 36-3] | < 5
CNCC(O)COc1ccc(Cl)c(-c2nc(NC3CC4(CCN(C(=O)OC)CC4)C3)c(C)c(-c3c(C)noc3C)n2)c1 (stereo not drawn) [Example 37-3] | < 5
CNCC(O)COc1cccc(-c2nc(-c3c(C)noc3C)cc(N3CCN(C(C)=O)[C@@H](C)C3)n2)c1 (stereo partly drawn) [Example 38-1a] | 5 to 10
CNCC(O)COc1ccc(Cl)c(-c2nc(NC3CC(O)(C(F)(F)F)C3)c(C)c(-c3c(C)noc3C)n2)c1 (stereo not drawn) [Example 38-3] | < 5
CNCC(O)COc1cccc(-c2nc(-c3c(C)noc3C)cc(N3CCN(C(C)=O)C[C@H]3C)n2)c1 (stereo partly drawn) [Example 39-1a] | 5 to 10
CNCC(O)COc1ccc(Cl)c(-c2nc(N[C@H]3CCC[C@@H](O)C3)c(C)c(-c3c(C)noc3C)n2)c1 (stereo partly drawn) [Example 39-3] | < 5
CNCC(O)COc1cccc(-c2nc(-c3ccnc(C)c3)cc(N(C)C3CCOCC3)n2)c1 (stereo not drawn) [Example 40-1] | 5 to 10
CNCC(O)COc1cccc(-c2nc(-c3c(C)noc3C)cc(N3CCN[C@@H](C)C3)n2)c1 (stereo partly drawn) [Example 40-1a] | 10 to 20
CNC[C@@H](O)COc1ccc(F)c(-c2nc(NC3CCN(C(=O)OC)CC3)c(C)c(-c3c(C)noc3C)n2)c1 [Example 40-3] | < 5
CNCC(O)COc1cccc(-c2nc(-c3cnn(CC(C)C)c3)cc(N(C)CCC#N)n2)c1 (stereo not drawn) [Example 41-1] | 10 to 20
CNCC(O)COc1cccc(-c2nc(N[C@H]3C[C@@H](O)C3)cc(-c3c(C)noc3C)n2)c1 (stereo partly drawn) [Example 41-1a] | 10 to 20
CNCC(O)COc1ccc(Cl)c(-c2nc(NCC3COCCO3)c(C)c(-c3c(C)noc3C)n2)c1 (stereo not drawn) [Example 41-3] | < 5
CNCC(O)COc1cccc(-c2nc(-c3c(C)noc3C)cc(N3CCC4(CC3)NC(=O)NC4=O)n2)c1 (stereo not drawn) [Example 42-1a] | 10 to 20
CCOC(=O)N1CCOC[C@@H]1CNc1nc(-c2cc(OC[C@@H](O)CNC)ccc2Cl)nc(-c2c(C)noc2C)c1C [Example 42-3] | < 5
CNCC(O)COc1cccc(-c2nc(N[C@H]3C[C@H](O)C3)cc(-c3c(C)noc3C)n2)c1 (stereo partly drawn) [Example 43-1a] | 10 to 20
CNC[C@H](O)COc1ccc(Cl)c(-c2nc(N[C@H]3CCN(C4CC4)C[C@H]3F)c(C)c(-c3c(C)noc3C)n2)c1 [Example 43-3] | < 5

Results, then the compound that gave them:

IC50 [µM] | Structure (SMILES)
5 to 10 | CNCC(O)COc1cccc(-c2nc(N[C@@H]3CC[C@@H](O)C3)cc(-c3c(C)noc3C)n2)c1 (stereo partly drawn) [Example 44-1a]
< 5 | CNC[C@@H](O)COc1ccc(Cl)c(-c2nc(N[C@H]3CCN(C4CC4)C[C@H]3F)c(C)c(-c3c(C)noc3C)n2)c1 [Example 44-3]
< 5 | CNCC(O)COc1cccc(-c2nc(NC3CC(C(=O)OC)C3)cc(-c3c(C)noc3C)n2)c1 (stereo not drawn) [Example 45-1a]
< 5 | CNCC(O)COc1ccc(Cl)c(-c2nc(NC3CC4(C3)CN(C(=O)OC)C4)c(C)c(-c3c(C)noc3C)n2)c1 (stereo not drawn) [Example 45-3]
< 5 | CNCC(O)COc1ccc(Cl)c(-c2nc(NC3CC(C)N(C(=O)OC)C(C)C3)c(C)c(-c3c(C)noc3C)n2)c1 (stereo not drawn) [Example 46-3]
< 5 | CNCC(O)COc1cc(Cl)cc(-c2nc(NC3CCOCC3)c(C)c(-c3c(C)noc3C)n2)c1 (stereo not drawn) [Example 47-1a]
10 to 20 | CNCC(O)COc1cccc(-c2nc(-c3c(C)noc3C)c(C)c(N3CCNC(C(F)F)C3)n2)c1 (stereo not drawn) [Example 47-3]
< 5 | CCN1CCC[C@H]1CNc1nc(-c2cc(OC[C@@H](O)CNC)ccc2Cl)nc(-c2c(C)noc2C)c1C [Example 48-3]
5 to 10 | CNCC(O)COc1cccc(-c2nc(Nc3cnc(C)nc3)cc(-c3c(C)noc3C)n2)c1 (stereo not drawn) [Example 49-1a]
< 5 | CCOC(=O)N1CCC[C@@H]1CNc1nc(-c2cc(OC[C@@H](O)CNC)ccc2Cl)nc(-c2c(C)noc2C)c1C [Example 49-3]
< 5 | CNCC(O)COc1cccc(-c2nc(-c3c(C)noc3C)cc(N(C)c3cncnc3)n2)c1 (stereo not drawn) [Example 50-1a]
10 to 20 | CNCC(O)COc1cccc(-c2nc(NC3CCOCC3)cc(-c3cnn(CC(C)C)c3)n2)c1 (stereo not drawn) [Example 51-1]
10 to 20 | CNCC(O)COc1cccc(-c2nc(-c3c(C)noc3C)cc(N(C)c3cnc(OC)nc3)n2)c1 (stereo not drawn) [Example 51-1a]
10 to 20 | CNCC(O)COc1cccc(-c2nc(-c3c(C)noc3C)cc(N(CCOC)CCOC)n2)c1 (stereo not drawn) [Example 52-1]
10 to 20 | CNCC(O)COc1cccc(-c2nc(SC)c(C)c(-c3c(C)noc3C)n2)c1 (stereo not drawn) [Example 53-1a]
< 5 | CNC[C@H](O)COc1ccc(Cl)c(-c2nc(N[C@H]3C[C@H](OC)C3)c(C)c(-c3c(C)noc3C)n2)c1 [Example 53-3]
< 5 | Cc1noc(C)c1-c1nc(-c2cccc(OCC(O)CN)c2)nc(NC2CCOCC2)c1C (stereo not drawn) [Example 54-1a]
< 5 | CNC[C@H](O)COc1ccc(Cl)c(-c2nc(N[C@H]3C[C@@H](OC)C3)c(C)c(-c3c(C)noc3C)n2)c1 [Example 54-3]
< 5 | CNC[C@H](O)COc1cccc(-c2nc(NC3CCOCC3)c(C)c(-c3c(C)noc3C)n2)c1 [Example 55-1a]
< 5 | CNC[C@H](O)COc1ccc(Cl)c(-c2nc(-c3c(C)noc3C)c(C)c(N3CC4(CCN(C5CC5)CC4)C3)n2)c1 [Example 55-3]
< 5 | CNC[C@@H](O)COc1cccc(-c2nc(NC3CCOCC3)c(C)c(-c3c(C)noc3C)n2)c1 [Example 56-1a]
< 5 | CCOC(=O)N1CCOC[C@@H]1CNc1nc(-c2cc(OC[C@H](O)CNC)ccc2Cl)nc(-c2c(C)noc2C)c1Cl [Example 56-3]
10 to 20 | CNCC(O)COc1cccc(-c2nc(-c3c(C)noc3C)c(C)c(N3CCS(=O)(=O)CC3)n2)c1 (stereo not drawn) [Example 57-1a]
< 5 | CNCC(O)COc1ccc(Cl)c(-c2nc(N[C@H]3CCC[C@@H](OC)C3)c(C)c(-c3c(C)noc3C)n2)c1 (stereo partly drawn) [Example 57-3]
